Data taken from patent US10144706B2 (BRISTOL-MYERS SQUIBB COMPANY, priority 2016, dated 2018).
pIC50: −log10 of the molar value. Read-outs that look alike come from different tables or passages of the source.

Biological target: T1, PD-1/PD-L1 interaction (PD-1-Ig / PD-L1-His) (Homo sapiens, UniProt Q9NZQ7)
T1 construct: hPDL1(18-239)-TVMV-His; TVMV protease site linker (C); made in house; host or cells: HEK293T
Assay: PD-1/PD-L1 Homogenous Time-Resolved Fluorescence (HTRF) binding assay
Conditions: PD-L1-His 10 nM, PD-1-Ig 20 nM, read-out: Range or IC50
Outline: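 HTRF detection used 1 nM europium-cryptate anti-Ig and 20 nM APC anti-His. Compounds first saw 10 nM PD-L1-His for 15 min, and 20 nM PD-1-Ig was then added for another 15 min. Buffer was dPBS plus 0.1% BSA and 0.05% Tween-20. All concentrations are final.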

T1 sequence (Q9NZQ7 with tags, fused parts or gaps): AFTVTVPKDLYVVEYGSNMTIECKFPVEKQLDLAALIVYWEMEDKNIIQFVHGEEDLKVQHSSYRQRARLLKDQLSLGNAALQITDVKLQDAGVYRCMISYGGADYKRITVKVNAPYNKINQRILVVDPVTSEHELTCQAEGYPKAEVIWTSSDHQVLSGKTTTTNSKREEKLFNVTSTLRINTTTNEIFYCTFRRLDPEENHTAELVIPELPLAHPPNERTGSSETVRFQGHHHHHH

| Structure (SMILES) | pIC50 (IC50 range class) | pIC50 (numeric IC50) |
| --- | --- | --- |
| O[C@@H]1CCN(CCC2COc3ccc(-c4ccc5c(c4)OC(CCN4CC[C@@H](O)C4)CO5)cc3O2)C1 (stereo partly drawn) [Example 3032, (3R,3′R)-1,1′-((2,2′,3,3′-tetrahydro-[6,6′-bibenzo[b][1,4]dioxine]-3,3′-diyl)bis(ethane-2,1-diyl))bis(pyrrolidin-3-ol)] | 7.05 to 7.70 | – |
| Cc1c(OCCCN2CC[C@@H](O)C2)cccc1-c1cccc(OCc2cccc(N)c2)c1C [Example 3033, (R)-1-(3-((3′-((3-aminobenzyl)oxy)-2,2′-dimethyl-[1,1′-biphenyl]-3-yl)oxy)propyl)pyrrolidin-3-ol] | 5.00 to 6.00 | – |
| Cc1c(OCCCN2CC[C@@H](O)C2)cccc1-c1cccc(OCCCN2CC[C@@H](F)C2)c1C [Example 3035, (R)-1-(3-((3′-(3-((R)-3-fluoropyrrolidin-1-yl)propoxy)-2,2′-dimethyl-[1,1′-biphenyl]-3-yl)oxy)propyl)pyrrolidin-3-ol] | 7.70 to 10.40 | – |
| Cc1cc(OCc2cccc(-c3cccc(COc4cc(C)c(CNC(C)(CO)CO)cc4C)c3C)c2C)c(C)cc1CNC(C)(CO)CO [Example 5001, 2,2′-((((((2,2′-dimethyl-[1,1′-biphenyl]-3,3′-diyl)bis(methylene))bis(oxy))bis(2,5-dimethyl-4,1-phenylene))bis(methylene))bis(azanediyl))bis(2-methylpropane-1,3-diol)] | 7.70 to 10.40 | – |
| Cc1cc(OCc2cccc(-c3cccc(COc4cc(C)c(CN5CCCC[C@H]5C(=O)O)cc4C)c3C)c2C)c(C)cc1CN1CCCC[C@H]1C(=O)O [Example 5002, (2S,2′S)-1,1′-(((((2,2′-dimethyl-[1,1′-biphenyl]-3,3′-diyl)bis(methylene))bis(oxy))bis(2,5-dimethyl-4,1-phenylene))bis(methylene))bis(piperidine-2-carboxylic acid)] | 7.05 to 7.70 | – |
| Cc1cc(OCc2cccc(-c3cccc(COc4cc(C)c(CNC(CO)CO)cc4C)c3C)c2C)c(C)cc1CNC(CO)CO [Example 5004, 2,2′-((((((2,2′-dimethyl-[1,1′-biphenyl]-3,3′-diyl)bis(methylene))bis(oxy))bis(2,5-dimethyl-4,1-phenylene))bis(methylene))bis(azanediyl))bis(propane-1,3-diol)] | 7.70 to 10.40 | – |
| Cc1c(COc2cc(OCc3cc(F)cc(F)c3)c(CN3CCCC[C@H]3C(=O)O)cc2Cl)cccc1-c1cccc(COc2cc(OCc3cc(F)cc(F)c3)c(CN3CCCC[C@H]3C(=O)O)cc2Cl)c1C [Example 5006, (2S,2′S)-1,1′-(((((2,2′-dimethyl-[1,1′-biphenyl]-3,3′-diyl)bis(methylene))bis(oxy))bis(5-chloro-2-((3,5-difluorobenzyl)oxy)-4,1-phenylene))bis(methylene))bis(piperidine-2-carboxylic acid)] | 7.70 to 10.40 | – |
| Cc1c(COc2cc(OCc3cc(F)cc(F)c3)c(CN[C@@H](CO)C(=O)O)cc2Cl)cccc1-c1cccc(COc2cc(OCc3cc(F)cc(F)c3)c(CN[C@@H](CO)C(=O)O)cc2Cl)c1C [Example 5008, (2S,2′S)-2,2′-((((((2,2′-dimethyl-[1,1′-biphenyl]-3,3′-diyl)bis(methylene))bis(oxy))bis(5-chloro-2-((3,5-difluorobenzyl)oxy)-4,1-phenylene))bis(methylene))bis(azanediyl))bis(3-hydroxypropanoic acid)] | 7.05 to 7.70 | – |
| Cc1c(COc2cc(OCc3cc(F)cc(F)c3)c(CN(C)[C@H](C(=O)O)C(C)C)cc2Cl)cccc1-c1cccc(COc2cc(OCc3cc(F)cc(F)c3)c(CN(C)[C@H](C(=O)O)C(C)C)cc2Cl)c1C [Example 5015, (2S,2′S)-2,2′-((((((2,2′-dimethyl-[1,1′-biphenyl]-3,3′-diyl)bis(methylene))bis(oxy))bis(5-chloro-2-((3,5-difluorobenzyl)oxy)-4,1-phenylene))bis(methylene))bis(methylazanediyl))bis(3-methylbutanoic acid)] | 7.05 to 7.70 | – |
| Cc1c(COc2cc(OCc3cc(F)cc(F)c3)c(CN(C)[C@@H](CC(C)C)C(=O)O)cc2Cl)cccc1-c1cccc(COc2cc(OCc3cc(F)cc(F)c3)c(CN(C)[C@@H](CC(C)C)C(=O)O)cc2Cl)c1C [Example 5017, (2S,2′S)-2,2′-((((((2,2′-dimethyl-[1,1′-biphenyl]-3,3′-diyl)bis(methylene))bis(oxy))bis(5-chloro-2-((3,5-difluorobenzyl)oxy)-4,1-phenylene))bis(methylene))bis(methylazanediyl))bis(4-methylpentanoic acid)] | 7.70 to 10.40 | – |
| Cc1c(COc2cc(OCc3ccc(-n4cccn4)nc3)c(CN[C@H](C(=O)O)[C@@H](C)O)cc2Cl)cccc1-c1cccc(COc2cc(OCc3ccc(-n4cccn4)nc3)c(CN[C@H](C(=O)O)[C@@H](C)O)cc2Cl)c1C [Example 5018, (2S,2′S,3R,3′R)-2,2′-((((((2,2′-dimethyl-[1,1′-biphenyl]-3,3′-diyl)bis(methylene))bis(oxy))bis(2-((6-(1H-pyrazol-1-yl)pyridin-3-yl)methoxy)-5-chloro-4,1-phenylene))bis(methylene))bis(azanediyl))bis(3-hydroxybutanoic acid)] | 7.70 to 10.40 | – |
| Cc1c(COc2cc(OCc3ccc(-n4cccn4)nc3)c(CNC(CO)CO)cc2Cl)cccc1-c1cccc(COc2cc(OCc3ccc(-n4cccn4)nc3)c(CNC(CO)CO)cc2Cl)c1C [Example 5019, 2,2′-((((((2,2′-dimethyl-[1,1′-biphenyl]-3,3′-diyl)bis(methylene))bis(oxy))bis(2-((6-(1H-pyrazol-1-yl)pyridin-3-yl)methoxy)-5-chloro-4,1-phenylene))bis(methylene))bis(azanediyl))bis(propane-1,3-diol)] | 7.05 to 7.70 | – |

More lines, now with the values ahead:

| pIC50 (IC50 range class) | pIC50 (numeric IC50) | Structure (SMILES) |
| --- | --- | --- |
| 6.00 to 7.05 | – | Cc1c(COc2cc(OCc3cc(F)cc(F)c3)c(CNC(CO)CO)cc2Cl)cccc1-c1cccc(COc2cc(OCc3cc(F)cc(F)c3)c(CNC(CO)CO)cc2Cl)c1C [Example 5003, 2,2′-((((((2,2′-dimethyl-[1,1′-biphenyl]-3,3′-diyl)bis(methylene))bis(oxy))bis(5-chloro-2-((3,5-difluorobenzyl)oxy)-4,1-phenylene))bis(methylene))bis(azanediyl))bis(propane-1,3-diol)] |
| 6.00 to 7.05 | – | Cc1c(COc2cc(OCc3cc(F)cc(F)c3)c(CN(C)C(CO)CO)cc2Cl)cccc1-c1cccc(COc2cc(OCc3cc(F)cc(F)c3)c(CN(C)C(CO)CO)cc2Cl)c1C [Example 5005, 2,2′-((((((2,2′-dimethyl-[1,1′-biphenyl]-3,3′-diyl)bis(methylene))bis(oxy))bis(5-chloro-2-((3,5-difluorobenzyl)oxy)-4,1-phenylene))bis(methylene))bis(methylazanediyl))bis(propane-1,3-diol)] |
| 7.70 to 10.40 | – | Cc1c(COc2cc(OCc3cc(F)cc(F)c3)c(CNC(C)(CO)CO)cc2Cl)cccc1-c1cccc(COc2cc(OCc3cc(F)cc(F)c3)c(CNC(C)(CO)CO)cc2Cl)c1C [Example 5007, 2,2′-((((((2,2′-dimethyl-[1,1′-biphenyl]-3,3′-diyl)bis(methylene))bis(oxy))bis(5-chloro-2-((3,5-difluorobenzyl)oxy)-4,1-phenylene))bis(methylene))bis(azanediyl))bis(2-methylpropane-1,3-diol)] |
| 7.70 to 10.40 | – | Cc1c(COc2cc(OCc3cc(F)cc(F)c3)c(CN[C@@](C)(CO)C(=O)O)cc2Cl)cccc1-c1cccc(COc2cc(OCc3cc(F)cc(F)c3)c(CN[C@@](C)(CO)C(=O)O)cc2Cl)c1C [Example 5009, (2S,2′S)-2,2′-((((((2,2′-dimethyl-[1,1′-biphenyl]-3,3′-diyl)bis(methylene))bis(oxy))bis(5-chloro-2-((3,5-difluorobenzyl)oxy)-4,1-phenylene))bis(methylene))bis(azanediyl))bis(3-hydroxy-2-methylpropanoic acid)] |
| 7.05 to 7.70 | – | Cc1c(COc2cc(OCc3cc(F)cc(F)c3)c(CN(C)C(C)(CO)CO)cc2Cl)cccc1-c1cccc(COc2cc(OCc3cc(F)cc(F)c3)c(CN(C)C(C)(CO)CO)cc2Cl)c1C [Example 5012, 2,2′-((((((2,2′-dimethyl-[1,1′-biphenyl]-3,3′-diyl)bis(methylene))bis(oxy))bis(5-chloro-2-((3,5-difluorobenzyl)oxy)-4,1-phenylene))bis(methylene))bis(methylazanediyl))bis(2-methylpropane-1,3-diol)] |
| 7.05 to 7.70 | – | Cc1c(COc2cc(OCc3cc(F)cc(F)c3)c(CN(C)[C@@H](CO)C(=O)O)cc2Cl)cccc1-c1cccc(COc2cc(OCc3cc(F)cc(F)c3)c(CN(C)[C@@H](CO)C(=O)O)cc2Cl)c1C [Example 5013, (2S,2′S)-2,2′-((((((2,2′-dimethyl-[1,1′-biphenyl]-3,3′-diyl)bis(methylene))bis(oxy))bis(5-chloro-2-((3,5-difluorobenzyl)oxy)-4,1-phenylene))bis(methylene))bis(methylazanediyl))bis(3-hydroxypropanoic acid)] |
| 7.05 to 7.70 | – | Cc1c(COc2cc(OCc3cc(F)cc(F)c3)c(CN(C)[C@@](C)(CO)C(=O)O)cc2Cl)cccc1-c1cccc(COc2cc(OCc3cc(F)cc(F)c3)c(CN(C)[C@@](C)(CO)C(=O)O)cc2Cl)c1C [Example 5014, (2S,2′S)-2,2′-((((((2,2′-dimethyl-[1,1′-biphenyl]-3,3′-diyl)bis(methylene))bis(oxy))bis(5-chloro-2-((3,5-difluorobenzyl)oxy)-4,1-phenylene))bis(methylene))bis(methylazanediyl))bis(3-hydroxy-2-methylpropanoic acid)] |
| – | 7.51 | CCC[C@@H](C(=O)O)N(C)Cc1cc(Cl)c(OCc2cccc(-c3cccc(COc4cc(OCc5cc(F)cc(F)c5)c(CN(C)[C@@H](CCC)C(=O)O)cc4Cl)c3C)c2C)cc1OCc1cc(F)cc(F)c1 [Example 5016, (2S,2′S)-2,2′-((((((2,2′-dimethyl-[1,1′-biphenyl]-3,3′-diyl)bis(methylene))bis(oxy))bis(5-chloro-2-((3,5-difluorobenzyl)oxy)-4,1-phenylene))bis(methylene))bis(methylazanediyl))dipentanoic acid] |
